{"source": "patent US8350062B2", "about": "“Synthesis and anticancer activity of new actin-targeting small-molecule agents” (priority 2009, dated 2013)", "experiment_in_all_cases": "NCI 60 cell line single dose screen", "assay_type_in_all_cases": "cell-based, human", "key": {"[1]": {"test_system": "SW-620", "conditions": "SW-620 (Colon Cancer), 10 micromolar, 48 h", "text": "(§1) Analog 10 was screened utilizing 60 different human tumor cell lines, representing leukemia, melanoma and cancers of the lung, colon, brain, ovary, breast, prostate, and kidney in order to show selective growth inhibition or cell killing of particular tumor cell lines. This screen is unique in that the complexity of a 60 cell line dose response produced by a given compound results in a biological response pattern which can be utilized in pattern recognition algorithms (COMPARE program. See: http://dtp.nci.nih.gov/docs/compare/compare.html). Using these algorithms, it is possible to assign a putative mechanism of action to a test compound, or to determine that the response pattern is unique and not similar to that of any of the standard prototype compounds included in the NCI database. In addition, following characterization of various cellular molecular targets in the 60 cell lines, it may be possible to select compounds most likely to interact with a specific molecular target.\n(§2) The screening is a two-stage process, beginning with the evaluation of the compound against the 60 cell lines at a single dose of 10 uM.\n(§3) The human tumor cell lines of the cancer screening panel are grown in RPMI 1640 medium containing 5% fetal bovine serum and 2 mM L-glutamine. For a typical screening experiment, cells are inoculated into 96 well microtiter plates in 100 μL at plating densities ranging from 5,000 to 40,000 cells/well depending on the doubling time of individual cell lines. After cell inoculation, the microtiter plates are incubated at 37° C., 5% CO2, 95% air and 100% relative humidity for 24 h prior to addition of experimental drug.\n(§4) After 24 h, two plates of each cell line are fixed in situ with TCA, to represent a measurement of the cell population for each cell line at the time of drug addition (Tz). Experimental drugs are solubilized in dimethyl sulfoxide at 400-fold the desired final maximum test concentration and stored frozen prior to use. At the time of drug addition, an aliquot of frozen concentrate is thawed and diluted to twice the desired final maximum test concentration with complete medium containing 50 μg/ml gentamicin.\n(§5) Following drug addition, the plates are incubated for an additional 48 h at 37° C., 5% CO2, 95% air, and 100% relative humidity. For adherent cells, the assay is terminated by the addition of cold TCA. Cells are fixed in situ by the gentle addition of […] of cold 50% (w/v) TCA (final concentration, 10% TCA) and incubated for 60 minutes at 4° C. The supernatant is discarded, and the plates are washed five times with tap water and air dried. Sulforhodamine B (SRB) solution (100 μl) at 0.4% (w/v) in 1% acetic acid is added to each well, and plates are incubated for 10 minutes at room temperature. After staining, unbound dye is removed by washing five times with 1% acetic acid and the plates are air dried. Bound stain is subsequently solubilized with 10 mM trizma base, and the absorbance is read on an automated plate reader at a wavelength of 515 nm. For suspension cells, the methodology is the same except that the assay is terminated by fixing settled cells at the bottom of the wells by gently adding 50 μl of 80% TCA (final concentration, 16% TCA). Using the absorbance measurements [time zero, (Tz), control growth, (C), and test growth in the presence of drug (Ti)], the percentage growth is calculated."}, "[2]": {"test_system": "BT-549", "conditions": "BT-549 (Breast Cancer), 10 micromolar, 48 h", "text": "as §1, §2, §3, §4, §5"}, "[3]": {"test_system": "SK-MEL-2", "conditions": "SK-MEL-2 (Melanoma), 10 micromolar, 48 h", "text": "as §1, §2, §3, §4, §5"}, "[4]": {"test_system": "ACHN", "conditions": "ACHN (Renal Cancer), 10 micromolar, 48 h", "text": "as §1, §2, §3, §4, §5"}, "[5]": {"test_system": "NCI-H322M", "conditions": "NCI-H322M (Non-Small Cell Lung Cancer), 10 micromolar, 48 h", "text": "as §1, §2, §3, §4, §5"}, "[6]": {"test_system": "HS 578T", "conditions": "HS 578T (Breast Cancer), 10 micromolar, 48 h", "text": "as §1, §2, §3, §4, §5"}, "[7]": {"test_system": "IGROV1", "conditions": "IGROV1 (Ovarian Cancer), 10 micromolar, 48 h", "text": "as §1, §2, §3, §4, §5"}, "[8]": {"test_system": "SF-539", "conditions": "SF-539 (CNS Cancer), 10 micromolar, 48 h", "text": "as §1, §2, §3, §4, §5"}, "[9]": {"test_system": "MDA-MB-231/ATCC", "conditions": "MDA-MB-231/ATCC (Breast Cancer), 10 micromolar, 48 h", "text": "as §1, §2, §3, §4, §5"}, "[10]": {"test_system": "OVCAR-8", "conditions": "OVCAR-8 (Ovarian Cancer), 10 micromolar, 48 h", "text": "as §1, §2, §3, §4, §5"}, "[11]": {"test_system": "MCF7", "conditions": "MCF7 (Breast Cancer), 10 micromolar, 48 h", "text": "as §1, §2, §3, §4, §5"}, "[12]": {"test_system": "SNB-75", "conditions": "SNB-75 (CNS Cancer), 10 micromolar, 48 h", "text": "as §1, §2, §3, §4, §5"}, "[13]": {"test_system": "HT29", "conditions": "HT29 (Colon Cancer), 10 micromolar, 48 h", "text": "as §1, §2, §3, §4, §5"}, "[14]": {"test_system": "MALME-3M", "conditions": "MALME-3M (Melanoma), 10 micromolar, 48 h", "text": "as §1, §2, §3, §4, §5"}, "[15]": {"test_system": "MDA-MB-468", "conditions": "MDA-MB-468 (Breast Cancer), 10 micromolar, 48 h", "text": "as §1, §2, §3, §4, §5"}, "[16]": {"test_system": "NCI/ADR-RES", "conditions": "NCI/ADR-RES (Ovarian Cancer), 10 micromolar, 48 h", "text": "as §1, §2, §3, §4, §5"}, "[17]": {"test_system": "MOLT-4", "conditions": "MOLT-4 (Leukemia), 10 micromolar, 48 h", "text": "as §1, §2, §3, §4, §5"}, "[18]": {"test_system": "SK-OV-3", "conditions": "SK-OV-3 (Ovarian Cancer), 10 micromolar, 48 h", "text": "as §1, §2, §3, §4, §5"}, "[19]": {"test_system": "OVCAR-4", "conditions": "OVCAR-4 (Ovarian Cancer), 10 micromolar, 48 h", "text": "as §1, §2, §3, §4, §5"}, "[20]": {"test_system": "HOP-62", "conditions": "HOP-62 (Non-Small Cell Lung Cancer), 10 micromolar, 48 h", "text": "as §1, §2, §3, §4, §5"}, "[21]": {"test_system": "NCI-H460", "conditions": "NCI-H460 (Non-Small Cell Lung Cancer), 10 micromolar, 48 h", "text": "as §1, §2, §3, §4, §5"}, "[22]": {"test_system": "HL-60(TB)", "conditions": "HL-60(TB) (Leukemia), 10 micromolar, 48 h"}}}
{"smiles": "COCCC(=O)NC[C@H](O)[C@H](C)C(=O)NCCC[C@H]1O[C@@]2(CCC[C@@H](CC[C@H](C)/C=C(\\C)[C@H](C)O)O2)CCC1C", "note": "(stereo partly shown) [Analog 10]", "values": [{"measurement": "Growth Percent", "setting": "[1]", "result": 45.90, "unit": "%"}, {"measurement": "Growth Percent", "setting": "[2]", "result": 29.35, "unit": "%"}, {"measurement": "Growth Percent", "setting": "[3]", "result": 53.99, "unit": "%"}, {"measurement": "Growth Percent", "setting": "[4]", "result": 51.57, "unit": "%"}, {"measurement": "Growth Percent", "setting": "[5]", "result": 113.58, "unit": "%"}, {"measurement": "Growth Percent", "setting": "[6]", "result": 46.51, "unit": "%"}, {"measurement": "Growth Percent", "setting": "[7]", "result": 17.52, "unit": "%"}, {"measurement": "Growth Percent", "setting": "[8]", "result": 40.64, "unit": "%"}, {"measurement": "Growth Percent", "setting": "[9]", "result": 43.18, "unit": "%"}, {"measurement": "Growth Percent", "setting": "[10]", "result": 90.22, "unit": "%"}, {"measurement": "Growth Percent", "setting": "[11]", "result": 62.27, "unit": "%"}, {"measurement": "Growth Percent", "setting": "[12]", "result": 6.67, "unit": "%"}, {"measurement": "Growth Percent", "setting": "[13]", "result": 30.53, "unit": "%"}, {"measurement": "Growth Percent", "setting": "[14]", "result": 72.36, "unit": "%"}, {"measurement": "Growth Percent", "setting": "[15]", "result": 29.03, "unit": "%"}, {"measurement": "Growth Percent", "setting": "[16]", "result": 88.16, "unit": "%"}, {"measurement": "Growth Percent", "setting": "[17]", "result": 57.48, "unit": "%"}, {"measurement": "Growth Percent", "setting": "[18]", "result": 59.10, "unit": "%"}, {"measurement": "Growth Percent", "setting": "[19]", "result": 45.16, "unit": "%"}, {"measurement": "Growth Percent", "setting": "[20]", "result": 40.92, "unit": "%"}, {"measurement": "Growth Percent", "setting": "[21]", "result": 48.25, "unit": "%"}, {"measurement": "Growth Percent", "setting": "[22]", "result": 51.51, "unit": "%"}]}
